Measured values reported in patent US10017768B2, “Method of treatment of chlamydial infections with selected EGFR inhibitors” (priority 2013, dated 2018).
Entries after “also recorded” stand apart in the source; their conditions may differ.

How the values were obtained:
[1] = system: C. trachomatis; experiment: Number, size and development of chlamydial inclusions in HeLa cells (confocal microscopy, ImageJ); assay type: cell-based, Chlamydia trachomatis strain D; settings: for Inclusion size / Number of inclusions: C. trachomatis 24 h; for Inclusion development: total infection 24 h
Description: Propagation of Chlamydia and infections. Chlamydia trachomatis strain D (C. trachomatis) was propagated in HeLa cells grown in complete DMEM containing cyclohexamide (2 μg/ml). After 48 h, infected cells were harvested in sucrose-phosphate-glutamate (SPG) buffer, ruptured by vortexing with 3 mm glass beads. EBs were purified using previously described methods. The resulting bacterial pellet was resuspended in cold SPG buffer with a 21 to 22-gauge injection needle and stored in aliquots at −80° C. For infection, chlamydial EBs were added to cells in monolayer (80% confluence) at a multiplicity of infection (MOI) of 2-10 for all studies included here. Centrifugation was not used during the infection.
siRNA transfections. […] After 24 h, transfected cells were replated for a second round of transfection. After another 24 h, cells were infected with C. trachomatis and incubated for different time intervals (siRNA was maintained during the infection) according to the experimental design and were either stained for analyzing the inclusion development or prepared for Western blot analysis.
(§1) EGFR inhibitor treatment. […] The cells were pretreated with Erlotinib (25 μM) for 2 h and then infected with C. trachomatis. […] The inhibitor concentration was maintained during the infection. In certain experiments in which protein phosphorylation was investigated (FIG. 1, Panels B, D, F and G, FIG. 2, FIG. 3 and FIG. 11) the cells were serum starved overnight before drug treatment and C. trachomatis infection. […] Infected samples were used either for Western blotting or confocal imaging as described below. In another set of experiments the cells were infected with C. trachomatis followed by addition of Erlotinib at 2.5, 5 and 18 hpi. The total time for C. trachomatis infection was 24 h after which the samples were used for Western blotting or confocal imaging.
Immunofluorescence. Cells were infected with C. trachomatis as described above. The cells were washed 5 times with PBS and fixed at either 2.5 hpi or 24 hpi with 4% PFA for 10 min and blocked with 5% BSA for 1 h. After washing with TBS (50 mM Tris HCl, pH 7.4 and 150 mM NaCl) the cells were permeabilized for 15 min with 0.1% Triton X-100 and again washed with TBS followed by incubation with the indicated primary antibodies overnight. […] After repeated washings, the coverslips were mounted and analyzed using Zeiss LSM 510 or 710 laser scanning confocal microscope. For the studies shown in FIG. 1, Panel A, C. trachomatis inclusions were stained using the Pathfinder Chlamydia Culture Confirmation System (BioRad, Hercules, Calif., USA). At 24 h post C. trachomatis infection, cells were fixed with methanol for 10 min at room temperature and stained with the FITC conjugated pathfinder anti-chlamydial mAb according to the manufacturer's protocol (Bio-Rad, Hercules, Calif.). For the co-localization studies, 30,000 HeLa cells were seeded into EZ slide 4-well glass slides (Millipore, Temecula, Calif., USA) and infected with C. trachomatis as described above for 2.5 h the next day. Cells were fixed 24 h later in 4% formaldehyde in PBS for 15 min, permeabilized in 0.1% Triton X-100 for 10 min, and blocked in 1% BSA for 1 h at room temperature. […] The slides were mounted with Fluoromount mounting medium (Sigma Aldrich, St. Louis, Mo., USA), sealed, and examined using Zeiss 710 laser scanning confocal microscope.
BAPTA/AM and Ionomycin treatment. Monolayers of HeLa cells were washed with PBS and replaced with calcium free DMEM+1% FBS and pretreated for 1 h with BAPTA/AM (15 μM) followed by C. trachomatis infection for 24 h. BAPTA/AM concentration was maintained during the C. trachomatis infection. The control cells were treated with DMSO (<0.1%) followed by 24 h of C. trachomatis infection. In another set of experiments, HeLa cells were infected with C. trachomatis followed by addition of BAPTA/AM (15 μM) or DMSO at 2 or 5 hpi. The total time for C. trachomatis infection was 24 h.

[2] = system: F-actin; experiment: Organization of F-actin at the chlamydial inclusion periphery (confocal microscopy); assay type: cell-based, human; settings: C. trachomatis 24 h
Description: Immunofluorescence. Cells were infected with C. trachomatis as described above. The cells were washed 5 times with PBS and fixed at either 2.5 hpi or 24 hpi with 4% PFA for 10 min and blocked with 5% BSA for 1 h. After washing with TBS (50 mM Tris HCl, pH 7.4 and 150 mM NaCl) the cells were permeabilized for 15 min with 0.1% Triton X-100 and again washed with TBS followed by incubation with the indicated primary antibodies overnight. […] After repeated washings, the coverslips were mounted and analyzed using Zeiss LSM 510 or 710 laser scanning confocal microscope. For the studies shown in FIG. 1, Panel A, C. trachomatis inclusions were stained using the Pathfinder Chlamydia Culture Confirmation System (BioRad, Hercules, Calif., USA). At 24 h post C. trachomatis infection, cells were fixed with methanol for 10 min at room temperature and stained with the FITC conjugated pathfinder anti-chlamydial mAb according to the manufacturer's protocol (Bio-Rad, Hercules, Calif.). For the co-localization studies, 30,000 HeLa cells were seeded into EZ slide 4-well glass slides (Millipore, Temecula, Calif., USA) and infected with C. trachomatis as described above for 2.5 h the next day. Cells were fixed 24 h later in 4% formaldehyde in PBS for 15 min, permeabilized in 0.1% Triton X-100 for 10 min, and blocked in 1% BSA for 1 h at room temperature. […]

[3] = system: intracellular calcium; experiment: Intracellular calcium staining (fluorescence microscopy) in HeLa cells; assay type: cell-based, human
Description: Intracellular calcium staining. Cells were washed with calcium free incomplete DMEM and incubated with 2 μM Fluo-4 AM diluted in Ca^2++ free incomplete DMEM at 37° C. for 30 min. The cells were then washed with Ca^2++ free HBSS and analyzed for calcium levels using an Olympus IX71 fluorescence microscope.
BAPTA/AM and Ionomycin treatment. Monolayers of HeLa cells were washed with PBS and replaced with calcium free DMEM+1% FBS and pretreated for 1 h with BAPTA/AM (15 μM) followed by C. trachomatis infection for 24 h. BAPTA/AM concentration was maintained during the C. trachomatis infection. The control cells were treated with DMSO (<0.1%) followed by 24 h of C. trachomatis infection. In another set of experiments, HeLa cells were infected with C. trachomatis followed by addition of BAPTA/AM (15 μM) or DMSO at 2 or 5 hpi. The total time for C. trachomatis infection was 24 h. To induce mobilization of calcium from intracellular stores to the cytoplasm, cultured cells were pretreated for 1 h with 1 μg/ml Ionomycin before chlamydial infection. C. trachomatis-infected cells were washed three times with PBS after 24 hpi and processed for immunofluorescence as described above.

[4] = system: EGFR, PLCγ1, STAT5 and Akt; experiment: Western blot of C. trachomatis-induced phosphorylation of EGFR and downstream effectors in HeLa cells; assay type: cell-based, human; settings: 25 μM Erlotinib for 2 h followed by Ct infection for 2.5 h
Description: (§2) Immunoblotting. Cells were harvested and lysed in modified RIPA buffer (50 mM Tris, 150 mM NaCl, 1% sodium deoxycholate, 1% NP-40, 1 mM sodium fluoride) supplemented with protease inhibitor cocktail and phosphatase inhibitor tablet (Roche). For Western blotting of C. trachomatis antigens, the C. trachomatis-infected cells were lysed in 20 mM HEPES buffer (pH 8.0) containing 8 M urea supplemented with protease inhibitors. Cell lysates were incubated on ice for 1 h and then sonicated briefly. The soluble protein fraction was collected by centrifugation at 10,000 rpm. Total protein was estimated using the BCA method and equal amounts of proteins (10-20 μg) were processed for immunoblotting. Proteins were resolved on 10% SDS polyacrylamide gel and transferred onto a nitrocellulose membrane. The blot was blocked using 3% BSA and incubated with the indicated antibodies. ECL was used to detect the proteins according to the manufacturer's instructions.
EGFR inhibitor treatment. […] The cells were pretreated with Erlotinib (25 μM) for 2 h and then infected with C. trachomatis. […] The inhibitor concentration was maintained during the infection. In certain experiments in which protein phosphorylation was investigated (FIG. 1, Panels B, D, F and G, FIG. 2, FIG. 3 and FIG. 11) the cells were serum starved overnight before drug treatment and C. trachomatis infection. […]

[5] = system: C. trachomatis; experiment: Inside out staining: chlamydial attachment and entry into the host cell; assay type: cell-based, Chlamydia trachomatis strain D; settings: HeLa cells, C. trachomatis 2.5 h
Description: Inside out staining. Differential staining of external and internalized bacteria was performed as described previously and using three independent studies. Briefly, cells were grown overnight in 2-well Lab-Tek chamber slides and treated with either EGFR inhibitors or siRNA as described above and subsequently infected with Chlamydia for 2.5 h at 37° C. to allow for bacterial attachment and internalization. […] Infected cells were washed five times in PBS and fixed in 1% paraformaldehyde (PFA). After fixation, cells were blocked in 5% BSA for 1 h and then incubated with FITC-conjugated antibody against chlamydial EBs for 1 h to stain external EBs. Cells were then permeabilized with 0.1% Triton X-100, blocked again, and incubated with antibody against chlamydial LPS followed by incubation with rhodamine-conjugated anti-goat antibody to stain intracellular and extracellular EBs. Imaging was performed using confocal microscopy (Carl Zeiss, Germany). The quantification for the inside out experiments was performed manually based on the number of attached EBs observed per infected cell. The statistical analysis was based on imaging data collected from fifteen fields containing 3-10 cells per field as described below.
Similarly, fifteen random fields (3-10 cells per field) were used for the inside out experiments. All results are presented as mean±SEM. […]

[6] = system: chlamydial Hsp60; experiment: Western blot analysis of chlamydial Hsp60 in infected HeLa cells; assay type: cell-based, Chlamydia trachomatis strain D
Description: as §2, §1

[7] = system: chlamydial EBs; experiment: Control experiment: viability of elementary bodies (EBs) treated with Erlotinib and Cetuximab (Hsp60 Western blot); assay type: cell-based, Chlamydia trachomatis strain D; settings: EBs with Erlotinib 25 μM or Cetuximab 20 μg/ml for 2.5 h, HeLa infection 24 h
Text: Control experiments. […] EB pellets were washed and resuspended in SPG buffer and used for subsequent HeLa cell infection. At 24 hpi cells were lysed for Western blotting of chlamydial Hsp60 antigen.

[8] = system: HeLa cells; experiment: Cell viability assay (MTT); assay type: cell-based, human; settings: 25 μM Erlotinib for 24 h
Description: Cell proliferation assay. To ensure that the dose of Erlotinib (25 μM) provided maximal inhibition without affecting cell viability, MTT assays were performed. HeLa cells were cultured for 24 h, treated with 25 μM Erlotinib and incubated at 37° C., 5% CO2 for 24 h. After washing the cells, the procedure for cell viability assay was followed as per manufacturer's instructions (Roche).

[9] = system: C. trachomatis; experiment: Transmission electron microscopy of HeLa cells infected with C. trachomatis; assay type: cell-based, Chlamydia trachomatis strain D; settings: C. trachomatis 24 h, vs respective controls
Description: Transmission electron microscopy. HeLa cells were infected with C. trachomatis as described above. […] The cells were then washed and post-fixed for 1 h in 1% osmic acid in 0.1 N Millonig's buffer followed by 1 h treatment with 1% uranyl acetate. […] Thin sections were then cut with a Reichert ultracut E microtome and stained with 1% uranyl acetate and Reynold's lead citrate solutions, followed by the analysis using 80 kV Tecnai Spirit BioTwin transmission electron microscope.

[10] = HeLa cells pre-treated with BAPTA/AM 15 μM for 1 h, calcium free DMEM
[11] = HeLa cells treated before infection (Erlotinib 25 μM, Cetuximab 20 μg/ml or siRNA), vs DMSO, IgG or control siRNA

CC(=O)OCOC(=O)CN(CC(=O)OCOC(C)=O)c1ccccc1OCCOc1ccccc1N(CC(=O)OCOC(C)=O)CC(=O)OCOC(C)=O [BAPTA/AM]
Inclusion size [1, 10]: significant decrease; also recorded: significantly reduced | Number of inclusions [1, 10]: significant decrease; also recorded: significantly reduced | Inclusion development ([1]; HeLa cells, BAPTA/AM 15 μM added at 2 or 5 hpi, vs DMSO): Impaired inclusion formation; also recorded: impaired inclusion development | Assembly of F-actin at the inclusion periphery ([2]; HeLa cells pre-treated with BAPTA/AM for 1 h): diffused assembly of F-actin at the inclusion periphery

C[C@H](CCC(=O)O)C[C@H](C)C[C@H](C)C(=O)/C=C(\O)[C@H](C)C[C@H](C)C/C=C/[C@@H](C)[C@@H](O)[C@@H](C)[C@@H](O)C[C@@H]1CC[C@@](C)([C@H]2CC[C@@](C)([C@@H](C)O)O2)O1 [Ionomycin]
Inclusion formation in EGFR siRNA treated cells with or without Ionomycin ([1]; HeLa cells, EGFR siRNA, Ionomycin 1 μg/ml 1 h pre-treatment, Ct 24 h): not able to rescue; also recorded: no significant difference | Intracellular free calcium (Fura-2/AM) ([3]; Ionomycin 1 μg/ml for 1 h): Increased intracellular free calcium

C#Cc1cccc(Nc2ncnc3cc(OCCOC)c(OCCOC)cc23)c1 [Erlotinib]
EGFR phosphorylation induced by Ct infection [4]: an increase in EGFR phosphorylation upon Ct infection in the absence of Erlotinib but not in the presence of the drug | Inclusion size [1, 11]: Significant reduction | Number of inclusions [1, 11]: significantly reduced | Inclusion development ([1]; HeLa cells, Erlotinib added at 2.5 hpi): impaired regular inclusion formation and resulted in formation of numerous bacterial aggregates; also recorded: incomplete inclusion development and bacterial aggregates | Inclusion development ([1]; HeLa cells, Erlotinib added at 5 hpi): impaired regular inclusion formation and resulted in formation of numerous bacterial aggregates; also recorded: incomplete inclusion development and bacterial aggregates | Inclusion development ([1]; HeLa cells, Erlotinib added at 18 hpi): did not significantly affect; also recorded: Well-developed C. trachomatis inclusions | Chlamydial binding to the host cell surface (cell-associated bacteria, external+internalized) [5]: Significant reduction | Chlamydial Hsp60 levels ([6]; HeLa cells treated before infection, C. trachomatis 2.5 h): significant (P<0.001) reduction | Chlamydial Hsp60 ([6]; HeLa cells, Erlotinib 25 μM added at 2.5 hpi, total infection 24 h): Significantly lower expression; also recorded: Significant decrease | Chlamydial Hsp60 antigen ([6]; HeLa cells, Erlotinib 25 μM followed by Ct infection for 24 h): marked decrease | Chlamydial Hsp60 antigen load in cells infected with drug-treated vs untreated EBs (EB viability) [7]: comparable; also recorded: no difference | Viability of HeLa cells [8]: did not reduce the viability; also recorded: did not affect the viability | Inclusion morphology by transmission electron microscopy [9]: small inclusions; also recorded: smaller and less mature | Calcium signal in C. trachomatis-infected cells (Fluo-4 AM) ([3]; Erlotinib added at 2.5 and 5 hpi, stained at 24 hpi): significant drop in calcium signal; also recorded: weak calcium signal | Assembly of F-actin at the inclusion periphery ([2]; HeLa cells with EGFR inhibition): altered
